Test system: Aδ- and C-type neurons (human DRG neurons)
Experiment: Electric field stimulation (EFS) live cell calcium imaging of human DRG neurons
Assay type: cell-based
Conditions: high voltage 15V/cm supra-threshold stimulation
Protocol: DRGs from the first thoracic vertebra (T1) through the first sacral vertebra (S1) were used in the present study. Human DRG neurons where isolated from organ donors for which full legal and ethical consent had been obtained. The DRGs were stripped of connective tissue and enzymatically digested at 37° C. for 2 h using AnaBios' proprietary enzyme mixture. Samples were then centrifuged for 2 min at 200×g, supernatant was gently removed, and tissue was washed 4 times, followed by resuspension in DMEM/F12 (Lonza) containing 1% horse serum (Thermo Fisher Scientific). Ganglia were mechanically dissociated by gentle trituration through the fire-polished tip of a sterile glass Pasteur pipette. […] Cells were maintained in culture at 37° C. with 5% CO2 in DMEM/F12 supplemented with 10% horse serum (Thermo Fisher Scientific), 2 mM glutamine, 25 ng/mL hNGF (Cell Signaling Technology, Danvers, Mass.), 25 ng/mL GDNF (Peprotech), and penicillin/streptomycin (Thermo Fisher Scientific). Half of the culture media was replaced with fresh media every 3 days.
Cells were loaded with 3 M Fluo-8-AM (AAT Bioquest) containing 0.1% Pluronic F-127 (Sigma) for 20 min. at room temperature. Extracellular solution contained in (mM): 145 NaCl, 3 KCl, 2 CaCl2), 1 MgCl2, 10 HEPES, 10 glucose adjusted to pH 7.4 with NaOH. […]

## CCN(CC)CC(=O)Nc1c(C)cccc1C [lidocaine]
  sensitivity of the maximal response to EFS to lidocaine: exhibited sensitivity
